Measured values reported in ChEMBL document CHEMBL1201862, “PubChem BioAssay data set” (2004).
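These data come from cells grown in 96-well plates and exposed to compound for 48 hours at five concentrations. GI50 = concentration required for 50% inhibition of growth.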 The source made the active and inactive calls. No stated cut-off is given here; in the data, active = GI50 up to about 1.1 µM and inactive = higher.

Experiments:
Test in all cases: NCI tumour cell line growth inhibition, 48 h
HL-60 = tested on: HL-60
MOLT-4 = tested on: MOLT-4
U-251 = tested on: U-251
K562 = tested on: K562
DU-145 = tested on: DU-145
SK-OV-3 = tested on: SK-OV-3
SK-MEL-28 = tested on: SK-MEL-28
SW-620 = tested on: SW-620
NCI-H226 = tested on: NCI-H226
SNB-75 = tested on: SNB-75
SR = tested on: SR
M14 = tested on: M14
RPMI-8226 = tested on: RPMI-8226
PC-3 = tested on: PC-3
UACC-257 = tested on: UACC-257
BT-549 = tested on: BT-549
SK-MEL-5 = tested on: SK-MEL-5
SK-MEL-2 = tested on: SK-MEL-2
OVCAR-5 = tested on: OVCAR-5
MDA-MB-231 = tested on: MDA-MB-231
COLO 205 = tested on: COLO 205
NCI/ADR-RES = tested on: NCI/ADR-RES
MDA-N = tested on: MDA-N
KM12 = tested on: KM12
TK-10 = tested on: TK-10
NCI-H23 = tested on: NCI-H23
HCT-116 = tested on: HCT-116
UACC-62 = tested on: UACC-62
NCI-H460 = tested on: NCI-H460
Hs-578T = tested on: Hs-578T
OVCAR-3 = tested on: OVCAR-3
CAKI-1 = tested on: CAKI-1
SN12C = tested on: SN12C
OVCAR-4 = tested on: OVCAR-4
SF-268 = tested on: SF-268
HCC 2998 = tested on: HCC 2998
HCT-15 = tested on: HCT-15
NCI-H522 = tested on: NCI-H522
UO-31 = tested on: UO-31
ACHN = tested on: ACHN
HOP-62 = tested on: HOP-62
MDA-MB-435 = tested on: MDA-MB-435
A549 = tested on: A549
RXF 393 = tested on: RXF 393
SNB-19 = tested on: SNB-19
CCRF-CEM = tested on: CCRF-CEM
T47D = tested on: T47D
SF-295 = tested on: SF-295
OVCAR-8 = tested on: OVCAR-8
EKVX = tested on: EKVX
HOP-92 = tested on: HOP-92
786-0 = tested on: 786-0
LOX IMVI = tested on: LOX IMVI
MCF7 = tested on: MCF7
IGROV-1 = tested on: IGROV-1
Malme-3M = tested on: Malme-3M
SF-539 = tested on: SF-539
A498 = tested on: A498
HT-29 = tested on: HT-29
DMS-273 = tested on: DMS-273
DLD-1 = tested on: DLD-1
DMS-114 = tested on: DMS-114
SNB-78 = tested on: SNB-78
M19-MEL = tested on: M19-MEL

**Q.** With `Cc1ccc(S(=O)(=O)N2CCNCCN(S(=O)(=O)c3ccc(C)cc3)CCN(S(=O)(=O)c3ccc(C)cc3)CC2)cc1` as the molecule, how does the GI50 (HL-60) read?
**A.** > 100 µM (inactive)

**Q.** What about the GI50 (MOLT-4) of the same molecule?
**A.** > 100 µM (inactive)

**Q.** What about the GI50 (U-251) of the same molecule?
**A.** > 100 µM (inactive)

**Q.** What about the GI50 (K562) of the same molecule?
**A.** > 100 µM (inactive)

**Q.** What about the GI50 (DU-145) of the same molecule?
**A.** > 100 µM (inactive)

**Q.** What about the GI50 (SK-OV-3) of the same molecule?
**A.** > 100 µM (inactive)

**Q.** What about the GI50 (SK-MEL-28) of the same molecule?
**A.** > 100 µM (inactive)

**Q.** And the GI50 (SW-620)?
**A.** > 100 µM (inactive)

**Q.** What about the GI50 (NCI-H226) of the same molecule?
**A.** > 100 µM (inactive)

**Q.** What about the GI50 (SNB-75) of the same molecule?
**A.** 54.3 µM (inactive)

**Q.** And the GI50 (SR)?
**A.** > 100 µM (inactive)

**Q.** And the GI50 (M14)?
**A.** > 100 µM (inactive)

**Q.** And the GI50 (RPMI-8226)?
**A.** > 100 µM (inactive)

**Q.** What about the GI50 (PC-3) of the same molecule?
**A.** > 100 µM (inactive)

**Q.** What about the GI50 (UACC-257) of the same molecule?
**A.** > 100 µM (inactive)

**Q.** What about the GI50 (BT-549) of the same molecule?
**A.** > 100 µM (inactive)

**Q.** And the GI50 (SK-MEL-5)?
**A.** > 100 µM (inactive)

**Q.** What about the GI50 (SK-MEL-2) of the same molecule?
**A.** > 100 µM (inactive)

**Q.** What about the GI50 (OVCAR-5) of the same molecule?
**A.** > 100 µM (inactive)

**Q.** What about the GI50 (MDA-MB-231) of the same molecule?
**A.** > 100 µM (inactive)

**Q.** And the GI50 (COLO 205)?
**A.** > 100 µM (inactive)

**Q.** And the GI50 (NCI/ADR-RES)?
**A.** > 100 µM (inactive)

**Q.** And the GI50 (MDA-N)?
**A.** > 100 µM (inactive)

**Q.** What about the GI50 (KM12) of the same molecule?
**A.** > 100 µM (inactive)

**Q.** What about the GI50 (TK-10) of the same molecule?
**A.** > 100 µM (inactive)

**Q.** What about the GI50 (NCI-H23) of the same molecule?
**A.** > 100 µM (inactive)

**Q.** What about the GI50 (HCT-116) of the same molecule?
**A.** > 100 µM (inactive)

**Q.** And the GI50 (UACC-62)?
**A.** > 100 µM (inactive)

**Q.** What about the GI50 (NCI-H460) of the same molecule?
**A.** > 100 µM (inactive)

**Q.** What about the GI50 (Hs-578T) of the same molecule?
**A.** > 100 µM (inactive)

**Q.** What about the GI50 (OVCAR-3) of the same molecule?
**A.** > 100 µM (inactive)

**Q.** What about the GI50 (CAKI-1) of the same molecule?
**A.** > 100 µM (inactive)

**Q.** And the GI50 (SN12C)?
**A.** > 100 µM (inactive)

**Q.** And the GI50 (OVCAR-4)?
**A.** > 100 µM (inactive)

**Q.** What about the GI50 (SF-268) of the same molecule?
**A.** > 100 µM (inactive)

**Q.** What about the GI50 (HCC 2998) of the same molecule?
**A.** > 100 µM (inactive)

**Q.** And the GI50 (HCT-15)?
**A.** > 100 µM

**Q.** And the GI50 (NCI-H522)?
**A.** > 100 µM (inactive)

**Q.** What about the GI50 (UO-31) of the same molecule?
**A.** > 100 µM (inactive)

**Q.** What about the GI50 (ACHN) of the same molecule?
**A.** > 100 µM (inactive)

**Q.** What about the GI50 (HOP-62) of the same molecule?
**A.** > 100 µM (inactive)

**Q.** And the GI50 (MDA-MB-435)?
**A.** > 100 µM (inactive)

**Q.** What about the GI50 (A549) of the same molecule?
**A.** > 100 µM (inactive)

**Q.** And the GI50 (RXF 393)?
**A.** > 100 µM (inactive)

**Q.** And the GI50 (SNB-19)?
**A.** > 100 µM (inactive)

**Q.** And the GI50 (CCRF-CEM)?
**A.** > 100 µM (inactive)

**Q.** What about the GI50 (T47D) of the same molecule?
**A.** > 100 µM (inactive)

**Q.** And the GI50 (SF-295)?
**A.** > 100 µM (inactive)

**Q.** And the GI50 (OVCAR-8)?
**A.** > 100 µM (inactive)

**Q.** And the GI50 (EKVX)?
**A.** > 100 µM (inactive)

**Q.** And the GI50 (HOP-92)?
**A.** 70.8 µM (inactive)

**Q.** And the GI50 (786-0)?
**A.** > 100 µM (inactive)

**Q.** What about the GI50 (LOX IMVI) of the same molecule?
**A.** > 100 µM (inactive)

**Q.** What about the GI50 (MCF7) of the same molecule?
**A.** > 100 µM (inactive)

**Q.** And the GI50 (IGROV-1)?
**A.** > 100 µM (inactive)

**Q.** And the GI50 (Malme-3M)?
**A.** > 100 µM (inactive)

**Q.** And the GI50 (SF-539)?
**A.** > 100 µM (inactive)

**Q.** And the GI50 (A498)?
**A.** > 100 µM (inactive)

**Q.** And the GI50 (HT-29)?
**A.** > 100 µM (inactive)

**Q.** For `Nc1ccc2nc(Nc3ccc(Cl)c(Cl)c3)cnc2c1`, which GI50 (HL-60) is on record?
**A.** 8.47 µM (inactive)

**Q.** And the GI50 (MOLT-4)?
**A.** 1.6 µM (inactive)

**Q.** What about the GI50 (U-251) of the same molecule?
**A.** 19.4 µM (inactive)

**Q.** What about the GI50 (K562) of the same molecule?
**A.** 19 µM (inactive)

**Q.** What about the GI50 (DMS-273) of the same molecule?
**A.** 18.2 µM (inactive)

**Q.** And the GI50 (SK-MEL-28)?
**A.** 17.6 µM (inactive)

**Q.** What about the GI50 (SW-620) of the same molecule?
**A.** 17.9 µM (inactive)

**Q.** And the GI50 (NCI-H226)?
**A.** 15.5 µM (inactive)

**Q.** What about the GI50 (SNB-75) of the same molecule?
**A.** 82.6 µM (inactive)

**Q.** And the GI50 (DLD-1)?
**A.** 34.7 µM (inactive)

**Q.** What about the GI50 (SR) of the same molecule?
**A.** 2.44 µM (inactive)

**Q.** What about the GI50 (DMS-114) of the same molecule?
**A.** 10 µM (inactive)

**Q.** And the GI50 (M14)?
**A.** 14.3 µM (inactive)

**Q.** What about the GI50 (RPMI-8226) of the same molecule?
**A.** 12.2 µM (inactive)

**Q.** And the GI50 (UACC-257)?
**A.** 25.8 µM (inactive)

**Q.** What about the GI50 (SK-MEL-5) of the same molecule?
**A.** 37.2 µM (inactive)

**Q.** And the GI50 (SK-MEL-2)?
**A.** 20 µM (inactive)

**Q.** What about the GI50 (OVCAR-5) of the same molecule?
**A.** 19.1 µM (inactive)

**Q.** And the GI50 (COLO 205)?
**A.** 19.4 µM (inactive)

**Q.** And the GI50 (SNB-78)?
**A.** 24.6 µM (inactive)

**Q.** What about the GI50 (KM12) of the same molecule?
**A.** 15.6 µM (inactive)

**Q.** And the GI50 (TK-10)?
**A.** 19.2 µM (inactive)

**Q.** What about the GI50 (NCI-H23) of the same molecule?
**A.** 22.4 µM (inactive)

**Q.** What about the GI50 (HCT-116) of the same molecule?
**A.** 18.1 µM (inactive)

**Q.** And the GI50 (NCI-H460)?
**A.** 17.6 µM (inactive)

**Q.** What about the GI50 (OVCAR-3) of the same molecule?
**A.** 16.9 µM (inactive)

**Q.** What about the GI50 (CAKI-1) of the same molecule?
**A.** 28.8 µM (inactive)

**Q.** And the GI50 (SN12C)?
**A.** 14.9 µM (inactive)

**Q.** And the GI50 (OVCAR-4)?
**A.** 17 µM (inactive)

**Q.** And the GI50 (SF-268)?
**A.** 13.9 µM (inactive)

**Q.** And the GI50 (HCC 2998)?
**A.** 16.1 µM (inactive)

**Q.** What about the GI50 (HCT-15) of the same molecule?
**A.** 16.6 µM

**Q.** What about the GI50 (NCI-H522) of the same molecule?
**A.** 6.37 µM (inactive)

**Q.** And the GI50 (UO-31)?
**A.** 11.9 µM (inactive)

**Q.** What about the GI50 (ACHN) of the same molecule?
**A.** 22.2 µM (inactive)

**Q.** What about the GI50 (HOP-62) of the same molecule?
**A.** 18.9 µM (inactive)

**Q.** What about the GI50 (M19-MEL) of the same molecule?
**A.** 18.2 µM (inactive)

**Q.** What about the GI50 (A549) of the same molecule?
**A.** 15.7 µM (inactive)

**Q.** And the GI50 (SNB-19)?
**A.** 17.3 µM (inactive)

**Q.** And the GI50 (CCRF-CEM)?
**A.** 1.11 µM (active)

**Q.** What about the GI50 (SF-295) of the same molecule?
**A.** > 10 µM (inactive)

**Q.** And the GI50 (OVCAR-8)?
**A.** 26.2 µM (inactive)

**Q.** And the GI50 (EKVX)?
**A.** 26.8 µM (inactive)

**Q.** And the GI50 (786-0)?
**A.** 15.5 µM (inactive)

**Q.** And the GI50 (LOX IMVI)?
**A.** 14.7 µM (inactive)

**Q.** What about the GI50 (Malme-3M) of the same molecule?
**A.** 18.5 µM (inactive)

**Q.** What about the GI50 (SF-539) of the same molecule?
**A.** 29.5 µM (inactive)

**Q.** And the GI50 (HT-29)?
**A.** 16.2 µM (inactive)
